Data reported in patent publication US11633370B2, “Use of scavengers of reactive gamma-ketoaldehydes to extend cell lifespan and healthspan” (Vanderbilt University, priority 2016, dated 2023).

Experiments:
[1] = tested on: RB981 [F19F10.5(ok888) V]; experiment: Longevity assay, ets-7 gene knock-out strain; assay type: in vivo, C. elegans; settings: 500 μM SA; 0 μM SA 16 days; p>0.05
Text: First, to validate the microarray results, the present inventors performed real-time RT-PCR on four genes, siah-1, sma-4, F13D12.6, and ets-7 (FIG. 6B). […] Messenger RNA levels for siah-1 and sma-4 were decreased by nearly 25%, as well as F13D12.6 and ets-7 were increased by nearly 25% by SA administration (p<0.05). Pathway Analysis using Gene Ontology (GO) with WEB-based Gene SeT Analysis Toolkit (WEBGESTALT <http://bioinfo.vanderbilt.edu/webgestalt/>) highlighted the metabolic process, lipid metabolic process, proteolysis pathways among many others as being altered favorably by the administration of SA (see Supplemental Data). From the array data confirmed by RT-PCR, the present inventors identified the ETS class transcription factor ETS-7 as a protein of interest. […] In order to test this, the present inventors carried out real-time RT-PCR quantification of ets-7 in non-functional SIR-2.1 mutant nematodes treated with increasing doses of SA (FIG. 6E). […]
Survival cultures were grown on 60-mm agar plates; after the late-stage L4/young adult molt, approximately 100 adults were transferred onto SA-OP50-seeded NGM plates. […] Worms were maintained at 20° C. and live worms were counted during transfer to freshly made SA-OP50-NGM agar plates every 2-3 days. Survival was scored as movement upon slight touch with the platinum wire. […]

[2] = tested on: VC199 [sir-2.1(ok434)]; experiment: Pharyngeal pumping rate, VC199; assay type: in vivo, C. elegans; settings: increasing concentrations of SA, day 15; P=0.5
Protocol: As with the N2 strain, the present inventors treated VC199 nematodes with increasing concentrations of SA and assessed the age-dependent accumulation of autofluorescent lipofuscin granules and decrease in pharyngeal pumping rate.
C. elegans pharyngeal pumping rate assays were performed on 60-mm agar plates with bacterial lawns at room temperature. Every fifth day, worms were transferred to fresh bacteria-seeded NGM plates, and incubated at 25° C. for 10 min in order to equilibrate feeding rates before measurement. After 10 min incubation, worms were observed under the Zeiss TLB 3.1 microscope with focus on the pharynx. The number of contractions in the terminal bulb of the pharynx was counted for 20 s and then plotted.

[3] = compared with pyridoxamine (PM); cited from earlier work

In the case of `NCc1ccccc1O` [SA, salicylamine], the median lifespan [1] is given as 15 days, the pharyngeal pumping rate [2] is given as “failed to preserve pharyngeal pumping rate” and the “potency and selectivity for scavenging isoketals” value [3] is given as “similarly potent and as selective as PM”.
